The results in this text go back to US20130224286A1, “METHODS AND COMPOSITIONS FOR TREATING POX VIRUS INFECTIONS” (priority 2010, published 2013).

For data set [1], the system named is HaCaT cells. Kind of data set: Toxicity on cells, MTT assay (Example 4, FIG. 3). The format is cell-based, human. The conditions noted are these: 1 day exposure. How it is done: Toxicity of test compounds on uninfected cell monolayers was measured using the standard tetrazolium dye MTT.
Test of various agents (BP: Benzoyl peroxide), at the indicated concentrations on triplicates of HaCaT cells in 96-well plates (FIG. 3).
Toxicity on cells (left side of panel): Cell monolayers were exposed to agents as indicated, and 1 day later, cellular viability was analysed by a standard MTT assay (control OD was between 1.15 and 1.3).
On the technique in general: Tetrazolium assays rely on reduction of a dye to a coloured formazan, in cell work by metabolically active cells.

Data set [2] relates to Vaccinia virus. The format is cell-based.
Data set [3] has as its system Vaccinia virus. Kind of data set: Direct virocidal effect on Vaccinia virus, 24 h exposure, BS-C-1 plaque assay (Example 6, FIG. 5). The format is cell-based. To be noted: 50 μM, 24 h at 37° C. How it is done: Direct virocidal effect of various agents on Vaccinia virus (24 h exposure) Triplicates of Vaccinia virus in a 96-well plate were incubated with agents at 50 μM final concentration for 24 h at 37° C. After incubation, virus was diluted 1000-fold and quantified in a standard 24-well BS-C-1 plaque assay.
The various agents used were as follows: BP: Benzoyl peroxide, D: Dicoumarol, DNCB: Dinitrochlorobenzene, DNFB: Dinitrofluorobenzene, K1: Vitamin K1, K2: Vitamin K2, Menadione (M is fresh, M* is Menadione kept at RT for 2 months), MBS: Menadione bisulfite and Control.

The subject of the next data set is Vaccinia virus WR. The class given is cell-based.
For data set [4], the system named is HaCaT cells. To be noted: 25 μM, 1 day, MTT.
The next data set concerns Molluscum contagiosum. Description: Treatment of a patient with Molluscum contagiosum lesions (topical painting). The format is in vivo, human. The conditions noted are these: 50 mM in DMSO painted on lesions, one to two times per day for 5 days, after 4 weeks. How it is done:
A patient, previously treated for Molluscum contagiosum infection with curettage, had two recurrences of Molluscum contagiosum. In each instance, a number of early lesions, which where in the elbow region or the lower jaw region respectively, were treated one to two times per day for 5 consecutive days. Treatment consisted of painting the lesions with a cotton stick, applying a solution of 50 mM Menadione dissolved in DMSO to the tip of the lesion. […] Concentrations of Menadione, its analogues and additional compounds used in this invention are as indicated below: […]

Molecules are shown by their SMILES.

With `O=c1oc2ccccc2c(O)c1Cc1c(O)c2ccccc2oc1=O` [Dicoumarol], in the data set with HaCaT cells [1], the cell toxicity entry is listed as “dose-dependent cell toxicity”. Besides, the virus replication entry in the data set with Vaccinia virus [2] is given as “inhibition of virus replication”.

As to `Oc1ccc(O)cc1` [Hydroquinone], the cell toxicity entry in the data set on HaCaT cells [1] is recorded as “no effect”. Also, the virus replication result in the data set on Vaccinia virus [2] was “no effect”.

Consider `CC1(S(=O)(=O)[O-])CC(=O)c2ccccc2C1=O.[Na+]` (centres unmarked) [Menadione bisulfite], for which the “reduction of virus infectivity (direct virocidal effect)” value in the data set on Vaccinia virus [3] turned out to be 95%. Besides, the cell toxicity entry in the data set on HaCaT cells [1] is “dose-dependent cell toxicity”. Besides, the virus replication result in the data set with Vaccinia virus [2] is listed as “inhibition of virus replication”. In addition, the virus progeny result in the data set with Vaccinia virus WR was “reduced virus progeny in a dose-dependend manner”.

`O=C(OOC(=O)c1ccccc1)c1ccccc1` [BP, Benzoyl peroxide]: the “reduction of virus infectivity (direct virocidal effect)” value with Vaccinia virus [3] was 43%. Also, the cell toxicity entry in the data set on HaCaT cells [1] was “dose-dependent cell toxicity”. Also, the virus replication entry with Vaccinia virus [2] is “inhibition of virus replication”.

As to `CC1=CC(=O)c2ccccc2C1=O` [Menadione, 2-methyl-1,4-naphthoquinone], the “effect on cell viability” value with HaCaT cells [4] was < 30%. Also, the “state of the skin after treatment of Molluscum contagiosum lesions” value in the data set on Molluscum contagiosum was “normal and without scar or discoloration”. Moreover, the virus progeny result in the data set on Vaccinia virus WR is “reduced virus progeny in a dose-dependend manner”.
